These results are taken from PubChem BioAssay (NCI).

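Method: 48-hour compound exposure of cells in 96-well plates, five concentrations, linear interpolation of endpoints. TGI is the concentration that stops growth completely.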

The test system of the first assay is SK-MEL-2 melanoma. Kind of assay: NCI-60 cell line screen, 48 h.
`O=C1C[C@H]2[C@@H](O1)[C@@H](O)CN1C(=O)c3ccccc3[C@H]21` gave a TGI of more than 100 µM.

In the case of `O=P(O)(Cc1ccccc1)c1ccccc1-c1ccccc1`, the TGI was more than 100 µM.

`CCO/C=N/NC(=O)CSc1nc2ccc(I)cc2c(=O)n1Cc1ccccc1` gave a TGI of 65.1 µM.

`CSc1nncc2[nH]c(C)nc12` had a TGI of more than 100 µM.

In turn, `CCOC(=O)c1ccc(C(=O)/C(C#N)=C2\CCCN2C)[nH]1` returned a TGI of more than 100 µM.

For the molecule `COc1ccc(C(OC(C)=O)C2C(=C(C#N)C#N)c3ccccc3C2=C(C#N)C#N)cc1` (centres undefined), the TGI came out at 83.8 µM.

`Oc1ccc(-c2nc(-c3ccc(F)cc3)c(-c3ccc4ccccc4n3)[nH]2)cc1` displayed a TGI of 32.9 µM.

In the case of `C[C@@]12CCC3C1C=C1C(=O)c4cc(O)ccc4C(=O)[C@]1(O2)[C@@]3(C)C=O`, the TGI is 20.2 µM.

As for `COC(=O)c1c(O)ccc2c1c1c(n2Cc2ccc(Cl)cc2Cl)C(=O)c2ccccc2C1`, the TGI was more than 100 µM.

Take `Cc1ccc(C(=O)N/N=C(\N=Nc2ccccc2[N+](=O)[O-])c2ccc(N(C)C)cc2)cc1`: the TGI is more than 100 µM.

`Cc1cc(OCc2nnc3n2N=C(c2cc(F)c(Cl)cc2Cl)/C(=C/c2ccc(Cl)cc2)S3)ccc1Cl` displayed a TGI of more than 100 µM.

For a further assay, the system named is SK-MEL-28 melanoma. As to the kind of experiment: NCI-60 cell line screen, 48 h.
`N#C/C(N)=C(\C#N)NC=NCc1ccccc1` had a TGI of more than 100 µM.

On to `Cc1c(O)c(C)c2c(C)cn(C(=O)C(C)(C)C)c2c1C`, for which the TGI was determined as 28.7 µM.

The molecule `CN1C(=O)C(CC=O)(C(C)(C)C)c2ccccc21` (centres undefined) yielded a TGI of more than 100 µM.

As for `COc1ccc(/C=N/n2c(-c3ccccc3)n[nH]c2=O)cc1`, the TGI was more than 100 µM.

The molecule `O=C1C[C@H]2[C@@H](O1)[C@@H](O)CN1C(=O)c3ccccc3[C@H]21` returned a TGI of more than 100 µM.

In turn, `O=P(O)(Cc1ccccc1)c1ccccc1-c1ccccc1` gave a TGI of more than 100 µM.

`CCO/C=N/NC(=O)CSc1nc2ccc(I)cc2c(=O)n1Cc1ccccc1` yielded a TGI of more than 100 µM.

`CSc1nncc2[nH]c(C)nc12` yielded a TGI of more than 100 µM.

The molecule `CCOC(=O)c1ccc(C(=O)/C(C#N)=C2\CCCN2C)[nH]1` yielded a TGI of more than 100 µM.

`COc1ccc(C(OC(C)=O)C2C(=C(C#N)C#N)c3ccccc3C2=C(C#N)C#N)cc1` (centres undefined) returned a TGI of more than 100 µM.

With `Oc1ccc(-c2nc(-c3ccc(F)cc3)c(-c3ccc4ccccc4n3)[nH]2)cc1`, the TGI came out at 37.7 µM.

In the case of `COC(=O)c1c(O)ccc2c1c1c(n2Cc2ccc(Cl)cc2Cl)C(=O)c2ccccc2C1`, the TGI was more than 100 µM.

For `Cc1ccc(C(=O)N/N=C(\N=Nc2ccccc2[N+](=O)[O-])c2ccc(N(C)C)cc2)cc1`, the TGI is more than 100 µM.

With `CC(C)C1=C(Cc2ccccc2)C(=O)O/C1=C\c1cc(Cl)c(O)c(Cl)c1`, the TGI is 35.9 µM.

Molecule `Cc1cc(OCc2nnc3n2N=C(c2cc(F)c(Cl)cc2Cl)/C(=C/c2ccc(Cl)cc2)S3)ccc1Cl` registered a TGI of 54.9 µM.

For a further assay, the system named is SNB-19 CNS. Kind of assay: NCI-60 cell line screen, 48 h.
With `N#C/C(N)=C(\C#N)NC=NCc1ccccc1`, the TGI was more than 100 µM.

Molecule `Cc1c(O)c(C)c2c(C)cn(C(=O)C(C)(C)C)c2c1C` came in with a TGI of 65.5 µM.

`CN1C(=O)C(CC=O)(C(C)(C)C)c2ccccc21` (centres undefined) displayed a TGI of more than 100 µM.

Consider `COc1ccc(/C=N/n2c(-c3ccccc3)n[nH]c2=O)cc1`, for which the TGI was more than 100 µM.

As for `O=C1C[C@H]2[C@@H](O1)[C@@H](O)CN1C(=O)c3ccccc3[C@H]21`, the TGI is more than 100 µM.

Regarding `O=P(O)(Cc1ccccc1)c1ccccc1-c1ccccc1`, the TGI is more than 100 µM.

`CCO/C=N/NC(=O)CSc1nc2ccc(I)cc2c(=O)n1Cc1ccccc1`: the TGI is more than 100 µM.

`CCOC(=O)c1ccc(C(=O)/C(C#N)=C2\CCCN2C)[nH]1` came in with a TGI of more than 100 µM.

For the molecule `Oc1ccc(-c2nc(-c3ccc(F)cc3)c(-c3ccc4ccccc4n3)[nH]2)cc1`, the TGI came out at 37.1 µM.

`C[C@@]12CCC3C1C=C1C(=O)c4cc(O)ccc4C(=O)[C@]1(O2)[C@@]3(C)C=O` yielded a TGI of 18.4 µM.

On to `COC(=O)c1c(O)ccc2c1c1c(n2Cc2ccc(Cl)cc2Cl)C(=O)c2ccccc2C1`, for which the TGI is more than 100 µM.

`Cc1ccc(C(=O)N/N=C(\N=Nc2ccccc2[N+](=O)[O-])c2ccc(N(C)C)cc2)cc1` registered a TGI of more than 100 µM.

In turn, `CC(C)C1=C(Cc2ccccc2)C(=O)O/C1=C\c1cc(Cl)c(O)c(Cl)c1` yielded a TGI of 37.1 µM.

A further assay has as its system UACC-62 melanoma. As to the kind of experiment: NCI-60 cell line screen, 48 h.
The molecule `N#C/C(N)=C(\C#N)NC=NCc1ccccc1` gave a TGI of more than 100 µM.

Molecule `Cc1c(O)c(C)c2c(C)cn(C(=O)C(C)(C)C)c2c1C` showed a TGI of 28.5 µM.

Regarding `CN1C(=O)C(CC=O)(C(C)(C)C)c2ccccc21` (centres undefined), the TGI was more than 100 µM.

As to `COc1ccc(/C=N/n2c(-c3ccccc3)n[nH]c2=O)cc1`, the TGI is more than 100 µM.

On to `O=C1C[C@H]2[C@@H](O1)[C@@H](O)CN1C(=O)c3ccccc3[C@H]21`, for which the TGI is more than 100 µM.

In turn, `O=P(O)(Cc1ccccc1)c1ccccc1-c1ccccc1` came in with a TGI of more than 100 µM.

As for `CCO/C=N/NC(=O)CSc1nc2ccc(I)cc2c(=O)n1Cc1ccccc1`, the TGI is more than 100 µM.

The molecule `CSc1nncc2[nH]c(C)nc12` returned a TGI of more than 100 µM.

For the molecule `CCOC(=O)c1ccc(C(=O)/C(C#N)=C2\CCCN2C)[nH]1`, the TGI was more than 100 µM.

For the molecule `Oc1ccc(-c2nc(-c3ccc(F)cc3)c(-c3ccc4ccccc4n3)[nH]2)cc1`, the TGI turned out to be 23.6 µM.

`C[C@@]12CCC3C1C=C1C(=O)c4cc(O)ccc4C(=O)[C@]1(O2)[C@@]3(C)C=O` yielded a TGI of 16.6 µM.

In turn, `COC(=O)c1c(O)ccc2c1c1c(n2Cc2ccc(Cl)cc2Cl)C(=O)c2ccccc2C1` displayed a TGI of more than 100 µM.

`Cc1ccc(C(=O)N/N=C(\N=Nc2ccccc2[N+](=O)[O-])c2ccc(N(C)C)cc2)cc1` had a TGI of more than 100 µM.

`CC(C)C1=C(Cc2ccccc2)C(=O)O/C1=C\c1cc(Cl)c(O)c(Cl)c1` displayed a TGI of 36 µM.

The test system of a further assay is UO-31 renal. Kind of assay: NCI-60 cell line screen, 48 h.
Molecule `N#C/C(N)=C(\C#N)NC=NCc1ccccc1` returned a TGI of more than 100 µM.

On to `Cc1c(O)c(C)c2c(C)cn(C(=O)C(C)(C)C)c2c1C`, for which the TGI came to 79.6 µM.

`CN1C(=O)C(CC=O)(C(C)(C)C)c2ccccc21` (centres undefined) registered a TGI of more than 100 µM.

The molecule `COc1ccc(/C=N/n2c(-c3ccccc3)n[nH]c2=O)cc1` had a TGI of more than 100 µM.

As for `O=C1C[C@H]2[C@@H](O1)[C@@H](O)CN1C(=O)c3ccccc3[C@H]21`, the TGI is more than 100 µM.

In turn, `O=P(O)(Cc1ccccc1)c1ccccc1-c1ccccc1` came in with a TGI of more than 100 µM.

The molecule `CCO/C=N/NC(=O)CSc1nc2ccc(I)cc2c(=O)n1Cc1ccccc1` showed a TGI of more than 100 µM.

The molecule `CSc1nncc2[nH]c(C)nc12` displayed a TGI of more than 100 µM.

`CCOC(=O)c1ccc(C(=O)/C(C#N)=C2\CCCN2C)[nH]1` had a TGI of more than 100 µM.

For the molecule `COc1ccc(C(OC(C)=O)C2C(=C(C#N)C#N)c3ccccc3C2=C(C#N)C#N)cc1` (centres undefined), the TGI came out at 75.1 µM.

`Oc1ccc(-c2nc(-c3ccc(F)cc3)c(-c3ccc4ccccc4n3)[nH]2)cc1` showed a TGI of 26.1 µM.

`C[C@@]12CCC3C1C=C1C(=O)c4cc(O)ccc4C(=O)[C@]1(O2)[C@@]3(C)C=O`: the TGI was determined as 13.7 µM.

`COC(=O)c1c(O)ccc2c1c1c(n2Cc2ccc(Cl)cc2Cl)C(=O)c2ccccc2C1` returned a TGI of more than 100 µM.

For `Cc1ccc(C(=O)N/N=C(\N=Nc2ccccc2[N+](=O)[O-])c2ccc(N(C)C)cc2)cc1`, the TGI is more than 100 µM.

Take `CC(C)C1=C(Cc2ccccc2)C(=O)O/C1=C\c1cc(Cl)c(O)c(Cl)c1`: the TGI amounted to 27.1 µM.

The molecule `Cc1cc(OCc2nnc3n2N=C(c2cc(F)c(Cl)cc2Cl)/C(=C/c2ccc(Cl)cc2)S3)ccc1Cl` yielded a TGI of more than 100 µM.
